The term Ki denotes a dissociation constant, usually derived from enzyme kinetics or from competition with a known ligand.

One assay deals with T1, human cloned 5-HT6 receptors (Homo sapiens, UniProt P50406).
T1 construct: expressed in transfected cells; host or cells: HeLa cells
T1 sequence (P50406 whole entry): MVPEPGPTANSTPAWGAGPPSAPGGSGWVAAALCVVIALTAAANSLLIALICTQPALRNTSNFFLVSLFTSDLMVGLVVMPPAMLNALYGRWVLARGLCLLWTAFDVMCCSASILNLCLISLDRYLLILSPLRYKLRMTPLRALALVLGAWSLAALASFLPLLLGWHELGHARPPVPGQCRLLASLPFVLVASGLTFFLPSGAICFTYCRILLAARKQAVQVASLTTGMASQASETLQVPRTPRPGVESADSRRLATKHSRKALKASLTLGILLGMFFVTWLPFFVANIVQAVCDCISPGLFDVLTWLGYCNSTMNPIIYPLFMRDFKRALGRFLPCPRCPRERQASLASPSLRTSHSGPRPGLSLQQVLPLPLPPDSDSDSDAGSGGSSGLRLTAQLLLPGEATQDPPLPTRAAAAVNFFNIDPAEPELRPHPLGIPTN
The assay can be described thus: 5-HT6 binding affinity, [3H]-LSD displacement on membranes of Hela cells.
Details: not given
`Cn1nc2ccc(N3CC[C@H](N)C3)cc2c1S(=O)(=O)c1cccc2ccccc12` [Example 18] returned an inhibitory constant (Ki) of 54.3 nM.

Turning to `CC(C)n1nc2ccc(N3CC[C@H](N)C3)cc2c1S(=O)(=O)c1cccc2ccccc12` [Example 19], affinity was put at a Ki of 48.7 nM.

Molecule `CC(C)Cn1nc2ccc(N3CC[C@H](N)C3)cc2c1S(=O)(=O)c1cccc2ccccc12` [Example 20] came in with a Ki of 75.8 nM.

Still in this assay, the particulars now being: [3H]-LSD 3.0 nM, Hela cell membranes, 120 min, room temperature; read-out: 5-HT6 Binding Ki.
As to `CC(C)n1nc(S(=O)(=O)c2cccc3ccccc23)c2cc(N3CC[C@@H](N)C3)ccc21` [Example 16, (R)-1-(1-isopropyl-3-(naphthalen-1-ylsulfonyl)-1H-indazol-5-yl)pyrrolidin-3-amine], the inhibition constant Ki came out at 13.7 nM.

For the molecule `N[C@H]1CCN(c2ccc3[nH]nc(S(=O)(=O)c4ccccc4)c3c2)C1` [Example 10, (3S)-1-(3-phenylsulfonyl-1H-indazol-5-yl)pyrrolidin-3-amine], the inhibitory constant (Ki) was determined as 131 nM.

In the case of `CN(C)[C@H]1CCN(c2ccc3[nH]nc(S(=O)(=O)c4cccc5ccccc45)c3c2)C1` [Example 13, (S)—N,N-dimethyl-1-(3-(naphthalen-1-ylsulfonyl)-1H-indazol-5-yl)pyrrolidin-3-amine], the inhibitory constant (Ki) came out at 50 nM.

On to `NC1CN(c2ccc3[nH]nc(S(=O)(=O)c4ccccc4)c3c2)C1` [Example 14, 1-(3-(phenylsulfonyl)-1H-indazol-5-yl)azetidin-3-amine], for which the Ki was found to be 1.1 nM.

As to `N[C@@H]1CCN(c2ccc3[nH]nc(S(=O)(=O)c4ccccc4)c3c2)C1` [Example 11, (3R)-1-(3-phenylsulfonyl-1H-indazol-5-yl)pyrrolidin-3-amine], the inhibition constant Ki stood at 146 nM.

With `CN(C)[C@@H]1CCN(c2ccc3[nH]nc(S(=O)(=O)c4cccc5ccccc45)c3c2)C1` [Example 12, (R)—N,N-dimethyl-1-(3-(naphthalen-1-ylsulfonyl)-1H-indazol-5-yl)pyrrolidin-3-amine], the inhibition constant (Ki) was determined as 1.1 nM.

For `NC1CN(c2ccc3[nH]nc(S(=O)(=O)c4cccc5ccccc45)c3c2)C1` [Example 8, 1-[3-(1-naphthylsulfonyl)-1H-indazol-5-yl]azetidin-3-amine], the inhibitory constant (Ki) was 3.5 nM.

Staying with this assay, now noted: read-out: 5-HT6 Binding Ki.
In the case of `Cn1nc(S(=O)(=O)c2cccc3ccccc23)c2cc(N3CC[C@@H](N)C3)ccc21` [Example 15, (3R)-1-[1-methyl-3-(naphthalen-1-ylsulfonyl)-1H-indazol-5-yl]pyrrolidin-3-amine], the inhibitory constant (Ki) is 21.1 nM.

`NC1CCN(c2ccc3[nH]nc(S(=O)(=O)c4cccc(Cl)c4)c3c2)CC1` [Example 5, 1-{3-[(3-chlorophenyl)sulfonyl]-1H-indazol-5-yl}piperidin-4-amine]: the inhibition constant Ki is 8 nM.

For `CC(C)Cn1nc(S(=O)(=O)c2cccc3ccccc23)c2cc(N3CC[C@@H](N)C3)ccc21` [Example 17, (R)-1-(1-isobutyl-3-(naphthalen-1-ylsulfonyl)-1H-indazol-5-yl)pyrrolidin-3-amine], the Ki stood at 36.9 nM.

The values above are taken from patent US7939520B2, “Aminoazacyclyl-3-sulfonylindazoles as 5-hydroxytryptamine-6 ligands” (Wyeth LLC, priority 2007, dated 2011).
